Laboratory results reported in ChEMBL document CHEMBL4265998, “NLRP3 Modulators for the Treatment of Autoinflammatory Disorders” (ACS Med Chem Lett, 2018).

What was measured:
Toll-like receptor 7 = target: T1, Toll-like receptor 7 (Homo sapiens, UniProt Q9NYK1); assay: Agonist activity at TLR7 (unknown origin) expressed in HEK-Blue cells; assay type: cell-based
T1 sequence (Q9NYK1 whole entry): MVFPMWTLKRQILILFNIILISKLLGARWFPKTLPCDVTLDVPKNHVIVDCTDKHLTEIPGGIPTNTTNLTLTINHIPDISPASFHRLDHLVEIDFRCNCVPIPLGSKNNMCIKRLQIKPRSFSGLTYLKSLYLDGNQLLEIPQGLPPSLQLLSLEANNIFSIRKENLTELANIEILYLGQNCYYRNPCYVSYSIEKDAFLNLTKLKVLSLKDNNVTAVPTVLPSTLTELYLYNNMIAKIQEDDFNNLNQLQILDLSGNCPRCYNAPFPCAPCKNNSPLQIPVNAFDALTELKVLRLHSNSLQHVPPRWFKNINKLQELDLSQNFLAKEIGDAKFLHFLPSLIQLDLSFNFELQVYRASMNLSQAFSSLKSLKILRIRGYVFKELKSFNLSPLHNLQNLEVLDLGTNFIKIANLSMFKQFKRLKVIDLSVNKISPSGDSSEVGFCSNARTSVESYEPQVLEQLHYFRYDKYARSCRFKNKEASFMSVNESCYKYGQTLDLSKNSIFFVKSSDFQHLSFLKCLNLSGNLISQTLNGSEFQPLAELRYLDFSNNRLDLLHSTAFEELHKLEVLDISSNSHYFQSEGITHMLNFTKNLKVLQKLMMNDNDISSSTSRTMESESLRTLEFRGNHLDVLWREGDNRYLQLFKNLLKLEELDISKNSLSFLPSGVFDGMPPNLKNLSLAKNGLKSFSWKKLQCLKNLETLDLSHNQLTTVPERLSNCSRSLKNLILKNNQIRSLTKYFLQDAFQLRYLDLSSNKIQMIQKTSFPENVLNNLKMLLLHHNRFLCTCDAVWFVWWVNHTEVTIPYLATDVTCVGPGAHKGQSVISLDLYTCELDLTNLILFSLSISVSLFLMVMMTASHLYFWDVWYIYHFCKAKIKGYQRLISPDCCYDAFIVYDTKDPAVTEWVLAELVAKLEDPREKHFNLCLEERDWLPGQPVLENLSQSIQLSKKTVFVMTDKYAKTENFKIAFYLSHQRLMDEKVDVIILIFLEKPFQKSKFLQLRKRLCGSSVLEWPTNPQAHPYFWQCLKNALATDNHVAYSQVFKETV

Toll-like receptor 8 = target: T2, Toll-like receptor 8 (Homo sapiens, UniProt Q9NR97); assay: Agonist activity at TLR8 (unknown origin) expressed in HEK-Blue cells; assay type: cell-based
T2 sequence (Q9NR97 whole entry): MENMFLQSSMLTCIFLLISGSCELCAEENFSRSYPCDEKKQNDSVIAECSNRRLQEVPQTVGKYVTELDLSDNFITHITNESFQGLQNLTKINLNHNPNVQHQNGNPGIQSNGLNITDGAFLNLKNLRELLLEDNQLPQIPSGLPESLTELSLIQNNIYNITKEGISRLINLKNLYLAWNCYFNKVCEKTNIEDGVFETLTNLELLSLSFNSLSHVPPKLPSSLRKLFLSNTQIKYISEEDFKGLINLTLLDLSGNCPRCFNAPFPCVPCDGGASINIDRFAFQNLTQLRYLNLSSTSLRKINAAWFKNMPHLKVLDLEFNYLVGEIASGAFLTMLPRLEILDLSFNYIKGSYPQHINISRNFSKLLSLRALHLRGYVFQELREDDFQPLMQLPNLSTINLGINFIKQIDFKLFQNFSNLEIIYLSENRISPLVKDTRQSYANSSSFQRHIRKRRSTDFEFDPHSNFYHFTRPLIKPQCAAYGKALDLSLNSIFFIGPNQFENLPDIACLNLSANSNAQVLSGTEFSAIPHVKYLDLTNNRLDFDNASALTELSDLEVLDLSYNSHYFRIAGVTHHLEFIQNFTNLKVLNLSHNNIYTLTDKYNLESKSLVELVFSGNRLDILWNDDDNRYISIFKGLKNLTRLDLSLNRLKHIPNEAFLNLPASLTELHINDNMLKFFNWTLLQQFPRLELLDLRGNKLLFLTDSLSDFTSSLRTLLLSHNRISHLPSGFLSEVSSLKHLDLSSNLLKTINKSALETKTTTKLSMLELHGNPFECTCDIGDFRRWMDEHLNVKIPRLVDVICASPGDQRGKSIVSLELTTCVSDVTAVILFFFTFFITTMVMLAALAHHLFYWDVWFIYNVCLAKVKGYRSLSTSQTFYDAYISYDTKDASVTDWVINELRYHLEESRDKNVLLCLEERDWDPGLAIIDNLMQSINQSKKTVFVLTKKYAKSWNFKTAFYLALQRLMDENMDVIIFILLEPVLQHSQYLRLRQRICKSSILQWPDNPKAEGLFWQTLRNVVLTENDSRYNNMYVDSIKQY

Row | EC50 (Toll-like receptor 7) | EC50 (Toll-like receptor 8) | Compound
1 | > 100 µM | > 100 µM | Nc1nc2cc(-n3cccn3)ccc2c2[nH]c(CN3C[C@H](c4ccccc4)CC3=O)nc12
2 | > 100 µM | > 100 µM | Nc1nc2cc(-c3cccs3)ccc2c2[nH]c(CN3CCCC3=O)nc12
3 | > 100 µM | > 100 µM | Nc1nc2cc(-c3ccccc3F)ccc2c2[nH]c(CN3CCCC3=O)nc12
4 | > 100 µM | > 100 µM | CCC(=O)N(CC)Cc1nc2c(N)nc3cc(-c4ccn[nH]4)ccc3c2n1CC
5 | > 100 µM | > 100 µM | CCN(Cc1nc2c(N)nc3cc(-c4ccccc4)ccc3c2[nH]1)C(C)=O
6 | > 100 µM | > 100 µM | CCN(Cc1nc2c(N)nc3cc(C4=CCCC4)ccc3c2[nH]1)C(C)=O
7 | > 100 µM | > 100 µM | Nc1nc2cc(-c3ccccc3)ccc2c2[nH]c(CN3CCCC3=O)nc12
8 | > 100 µM | > 100 µM | CCN(Cc1nc2c(N)nc3cc(-c4cc[nH]n4)ccc3c2n1C)C(=O)OC(C)(C)C
9 | > 100 µM | > 100 µM | CCN(C)Cc1nc2c(N)nc3cc(-c4cc[nH]n4)ccc3c2[nH]1
10 | > 100 µM | > 100 µM | Cc1cccc(-c2ccc3c(c2)nc(N)c2nc(CN4CCCC4=O)[nH]c23)c1
11 | > 100 µM | > 100 µM | CCn1c(CN2CCCC2=O)nc2c(N)nc3cc(-c4cccs4)ccc3c21
12 | > 100 µM | > 100 µM | Cc1ccc(-c2ccc3c(c2)nc(N)c2nc(CN4CCCC4=O)[nH]c23)cc1
